Results: patent US10538554B2, “Peptides and uses therefor as antiviral agents” (priority 2015, dated 2020)
Bridge positions count the residues as written; N and C are the ends. Square brackets hold non-standard residues; d marks the D form. Peptide text beside a SMILES is read from it.

System: H1N1 A/PR/8/1934
Conditions: A/PR/8/1934, 48 h

In the case of `CC[C@@H](C)[C@H]1NC(=O)[C@@H](Cc2ccccc2)NC(=O)[C@@H]([C@H](C)O)NC(=O)[C@@H](Cc2ccccc2)NC(=O)[C@@H](Cc2c[nH]c3ccccc23)NC(=O)[C@@H](Cc2c[nH]c3ccccc23)NC(=O)[C@H](NC(=O)[C@H](CCCCN)NC(=O)[C@H](CCCCN)NC(=O)[C@H](CCCNC(=N)N)NC(=O)[C@@H](N)CCCNC(=N)N)CSSC[C@H](C(=O)O)NC(=O)[C@@H](CC(N)=O)NC1=O` [PSP V A19, H-RRKKcwwftfinc-OH] (H-RRKK[dC][dW][dW][dF][dT][dF][dI][dN][dC]-OH; disulfide 5-13), the IC50 is reported as 20 nM.

Same assay, conditions: A/PR/8/1934, 48 h, 1 μM

`CC[C@@H](C)[C@H]1NC(=O)[C@@H](Cc2ccccc2)NC(=O)[C@@H]([C@H](C)O)NC(=O)[C@@H](Cc2ccccc2)NC(=O)[C@@H](Cc2c[nH]c3ccccc23)NC(=O)CNC(=O)[C@H](NC(=O)[C@H](CCCCN)NC(=O)[C@H](CCCCN)NC(=O)[C@H](CCCNC(=N)N)NC(=O)[C@@H](N)CCCNC(=N)N)CSSC[C@H](C(=O)O)NC(=O)[C@@H](CC(N)=O)NC1=O` [PSP V A6, H-RRKKcGwftfinc-OH] (H-RRKK[dC]G[dW][dF][dT][dF][dI][dN][dC]-OH; disulfide 5-13) was tested, and the “% Inhibition” value was less than 20%.
For `CC[C@@H](C)[C@H]1NC(=O)[C@@H](Cc2ccccc2)NC(=O)[C@@H]([C@H](C)O)NC(=O)[C@@H](Cc2ccccc2)NC(=O)[C@@H](Cc2c[nH]c3ccccc23)NC(=O)[C@@H](CC(N)=O)NC(=O)[C@H](NC(=O)[C@H](CCCCN)NC(=O)[C@H](CCCCN)NC(=O)[C@H](CCCNC(=N)N)NC(=O)[C@@H](N)CCCNC(=N)N)CSSC[C@H](C(=O)O)NC(=O)[C@@H](CC(N)=O)NC1=O` [PSP V A12, H-RRKKcnwftfinc-OH] (H-RRKK[dC][dN][dW][dF][dT][dF][dI][dN][dC]-OH; disulfide 5-13), the “% Inhibition” value was less than 20%.
For `CC[C@@H](C)[C@H]1NC(=O)[C@@H](Cc2ccccc2)NC(=O)[C@@H]([C@H](C)O)NC(=O)[C@@H](Cc2ccccc2)NC(=O)[C@@H](Cc2c[nH]c3ccccc23)NC(=O)[C@H]2CCCN2C(=O)[C@H](NC(=O)[C@H](CCCCN)NC(=O)[C@H](CCCCN)NC(=O)[C@H](CCCNC(=N)N)NC(=O)[C@@H](N)CCCNC(=N)N)CSSC[C@H](C(=O)O)NC(=O)[C@@H](CC(N)=O)NC1=O` [PSP V A13, H-RRKKcpwftfinc-OH] (H-RRKK[dC][dP][dW][dF][dT][dF][dI][dN][dC]-OH; disulfide 5-13), the “% Inhibition” value was less than 20%.
In the case of `CC[C@@H](C)[C@H]1NC(=O)[C@@H](Cc2ccccc2)NC(=O)[C@@H]([C@H](C)O)NC(=O)[C@@H](Cc2ccccc2)NC(=O)[C@@H](Cc2c[nH]c3ccccc23)NC(=O)[C@@H](Cc2ccc(O)cc2)NC(=O)[C@H](NC(=O)[C@H](CCCCN)NC(=O)[C@H](CCCCN)NC(=O)[C@H](CCCNC(=N)N)NC(=O)[C@@H](N)CCCNC(=N)N)CSSC[C@H](C(=O)O)NC(=O)[C@@H](CC(N)=O)NC1=O` [PSP V A20, H-RRKKcywftfinc-OH] (H-RRKK[dC][dY][dW][dF][dT][dF][dI][dN][dC]-OH; disulfide 5-13), the “% Inhibition” value is reported as less than 20%.

Going from `CC[C@@H](C)[C@H]1NC(=O)[C@@H](Cc2ccccc2)NC(=O)[C@@H]([C@H](C)O)NC(=O)[C@@H](Cc2ccccc2)NC(=O)[C@@H](Cc2c[nH]c3ccccc23)NC(=O)[C@@H](Cc2c[nH]cn2)NC(=O)[C@H](NC(=O)[C@H](CCCCN)NC(=O)[C@H](CCCCN)NC(=O)[C@H](CCCNC(=N)N)NC(=O)[C@@H](N)CCCNC(=N)N)CSSC[C@H](C(=O)O)NC(=O)[C@@H](CC(N)=O)NC1=O` [PSP V A7, H-RRKKchwitfinc-OH] (H-RRKK[dC][dH][dW][dF][dT][dF][dI][dN][dC]-OH; disulfide 5-13) to `CC[C@@H](C)[C@H]1NC(=O)[C@@H](Cc2ccccc2)NC(=O)[C@@H]([C@H](C)O)NC(=O)[C@@H](Cc2ccccc2)NC(=O)[C@@H](Cc2c[nH]c3ccccc23)NC(=O)[C@@H](CO)NC(=O)[C@H](NC(=O)[C@H](CCCCN)NC(=O)[C@H](CCCCN)NC(=O)[C@H](CCCNC(=N)N)NC(=O)[C@@H](N)CCCNC(=N)N)CSSC[C@H](C(=O)O)NC(=O)[C@@H](CC(N)=O)NC1=O` [PSP V A16, H-RRKKcswftfinc-OH] (H-RRKK[dC][dS][dW][dF][dT][dF][dI][dN][dC]-OH; disulfide 5-13), the “% Inhibition” value falls from 67% to 54%.

First: CC[C@@H](C)[C@H]1NC(=O)[C@@H](Cc2ccccc2)NC(=O)[C@@H]([C@H](C)O)NC(=O)[C@@H](Cc2ccccc2)NC(=O)[C@@H](Cc2c[nH]c3ccccc23)NC(=O)[C@@H]([C@H](C)CC)NC(=O)[C@H](NC(=O)[C@H](CCCCN)NC(=O)[C@H](CCCCN)NC(=O)[C@H](CCCNC(=N)N)NC(=O)[C@@H](N)CCCNC(=N)N)CSSC[C@H](C(=O)O)NC(=O)[C@@H](CC(N)=O)NC1=O [PSP V A8, H-RRKKciwftfinc-OH] (H-RRKK[dC][dI][dW][dF][dT][dF][dI][dN][dC]-OH; disulfide 5-13)
Second: CC[C@@H](C)[C@H]1NC(=O)[C@@H](Cc2ccccc2)NC(=O)[C@@H]([C@H](C)O)NC(=O)[C@@H](Cc2ccccc2)NC(=O)[C@@H](Cc2c[nH]c3ccccc23)NC(=O)[C@@H](C(C)C)NC(=O)[C@H](NC(=O)[C@H](CCCCN)NC(=O)[C@H](CCCCN)NC(=O)[C@H](CCCNC(=N)N)NC(=O)[C@@H](N)CCCNC(=N)N)CSSC[C@H](C(=O)O)NC(=O)[C@@H](CC(N)=O)NC1=O [PSP V A18, H-RRKKcvwftfinc-OH] (H-RRKK[dC][dV][dW][dF][dT][dF][dI][dN][dC]-OH; disulfide 5-13)
The “% Inhibition” value of the first is lower: 20% for the first, 81% for the second.

First: CC[C@@H](C)[C@H]1NC(=O)[C@@H](Cc2ccccc2)NC(=O)[C@@H]([C@H](C)O)NC(=O)[C@@H](Cc2ccccc2)NC(=O)[C@@H](Cc2c[nH]c3ccccc23)NC(=O)[C@@H](CCCCN)NC(=O)[C@H](NC(=O)[C@H](CCCCN)NC(=O)[C@H](CCCCN)NC(=O)[C@H](CCCNC(=N)N)NC(=O)[C@@H](N)CCCNC(=N)N)CSSC[C@H](C(=O)O)NC(=O)[C@@H](CC(N)=O)NC1=O [PSP V A9, H-RRKKckwftfinc-OH] (H-RRKK[dC][dK][dW][dF][dT][dF][dI][dN][dC]-OH; disulfide 5-13)
Second: CC[C@@H](C)[C@H]1NC(=O)[C@@H](Cc2ccccc2)NC(=O)[C@@H]([C@H](C)O)NC(=O)[C@@H](Cc2ccccc2)NC(=O)[C@@H](Cc2c[nH]c3ccccc23)NC(=O)[C@@H](CCCNC(=N)N)NC(=O)[C@H](NC(=O)[C@H](CCCCN)NC(=O)[C@H](CCCCN)NC(=O)[C@H](CCCNC(=N)N)NC(=O)[C@@H](N)CCCNC(=N)N)CSSC[C@H](C(=O)O)NC(=O)[C@@H](CC(N)=O)NC1=O [PSP V A15, H-RRKKcrwftfinc-OH] (H-RRKK[dC][dR][dW][dF][dT][dF][dI][dN][dC]-OH; disulfide 5-13)
The “% Inhibition” value of the first is lower: 77% for the first, 87% for the second.

Going from `CC[C@@H](C)[C@H]1NC(=O)[C@@H](Cc2ccccc2)NC(=O)[C@@H]([C@H](C)O)NC(=O)[C@@H](Cc2ccccc2)NC(=O)[C@@H](Cc2c[nH]c3ccccc23)NC(=O)[C@@H](CC(C)C)NC(=O)[C@H](NC(=O)[C@H](CCCCN)NC(=O)[C@H](CCCCN)NC(=O)[C@H](CCCNC(=N)N)NC(=O)[C@@H](N)CCCNC(=N)N)CSSC[C@H](C(=O)O)NC(=O)[C@@H](CC(N)=O)NC1=O` [PSP V A10, H-RRKKclwftfinc-OH] (H-RRKK[dC][dL][dW][dF][dT][dF][dI][dN][dC]-OH; disulfide 5-13) to `CC[C@@H](C)[C@H]1NC(=O)[C@@H](Cc2ccccc2)NC(=O)[C@@H]([C@H](C)O)NC(=O)[C@@H](Cc2ccccc2)NC(=O)[C@@H](Cc2c[nH]c3ccccc23)NC(=O)[C@@H](CCSC)NC(=O)[C@H](NC(=O)[C@H](CCCCN)NC(=O)[C@H](CCCCN)NC(=O)[C@H](CCCNC(=N)N)NC(=O)[C@@H](N)CCCNC(=N)N)CSSC[C@H](C(=O)O)NC(=O)[C@@H](CC(N)=O)NC1=O` [PSP V A11, M-RRKKcmwftfinc-OH] (H-RRKK[dC][dM][dW][dF][dT][dF][dI][dN][dC]-OH; disulfide 5-13; N-terminus assumed), the “% Inhibition” value rises from 65% to 92%.

Compared with `CC[C@@H](C)[C@H]1NC(=O)[C@@H](Cc2ccccc2)NC(=O)[C@@H]([C@H](C)O)NC(=O)[C@@H](Cc2ccccc2)NC(=O)[C@@H](Cc2c[nH]c3ccccc23)NC(=O)[C@@H](CCC(N)=O)NC(=O)[C@H](NC(=O)[C@H](CCCCN)NC(=O)[C@H](CCCCN)NC(=O)[C@H](CCCNC(=N)N)NC(=O)[C@@H](N)CCCNC(=N)N)CSSC[C@H](C(=O)O)NC(=O)[C@@H](CC(N)=O)NC1=O` [PSP V A14, H-RRKKcqwftfinc-OH] (H-RRKK[dC][dQ][dW][dF][dT][dF][dI][dN][dC]-OH; disulfide 5-13), `CC[C@@H](C)[C@H]1NC(=O)[C@@H](Cc2ccccc2)NC(=O)[C@@H]([C@H](C)O)NC(=O)[C@@H](Cc2ccccc2)NC(=O)[C@@H](Cc2c[nH]c3ccccc23)NC(=O)[C@@H](Cc2c[nH]c3ccccc23)NC(=O)[C@H](NC(=O)[C@H](CCCCN)NC(=O)[C@H](CCCCN)NC(=O)[C@H](CCCNC(=N)N)NC(=O)[C@@H](N)CCCNC(=N)N)CSSC[C@H](C(=O)O)NC(=O)[C@@H](CC(N)=O)NC1=O` [PSP V A19, H-RRKKcwwftfinc-OH] (H-RRKK[dC][dW][dW][dF][dT][dF][dI][dN][dC]-OH; disulfide 5-13) is higher in “% Inhibition” value: 44% for the first, 97% for the second.

Compared with `CC[C@@H](C)[C@H]1NC(=O)[C@@H](Cc2ccccc2)NC(=O)[C@@H]([C@H](C)O)NC(=O)[C@@H](Cc2ccccc2)NC(=O)[C@@H](Cc2c[nH]c3ccccc23)NC(=O)[C@@H](Cc2c[nH]c3ccccc23)NC(=O)[C@H](NC(=O)[C@H](CCCCN)NC(=O)[C@H](CCCCN)NC(=O)[C@H](CCCNC(=N)N)NC(=O)[C@@H](N)CCCNC(=N)N)CSSC[C@H](C(=O)O)NC(=O)[C@@H](CS)NC1=O` [PSP VI A2, H-RRKKcwwftficc-OH] (H-RRKK[dC][dW][dW][dF][dT][dF][dI][dC][dC]-OH; disulfide 5-13), `CC[C@@H](C)[C@H]1NC(=O)[C@@H](Cc2ccccc2)NC(=O)[C@@H]([C@H](C)O)NC(=O)[C@@H](Cc2ccccc2)NC(=O)[C@@H](Cc2c[nH]c3ccccc23)NC(=O)[C@@H](Cc2c[nH]c3ccccc23)NC(=O)[C@H](NC(=O)[C@H](CCCCN)NC(=O)[C@H](CCCCN)NC(=O)[C@H](CCCNC(=N)N)NC(=O)[C@@H](N)CCCNC(=N)N)CSSC[C@H](C(=O)O)NC(=O)[C@@H](CC(=O)O)NC1=O` [PSP VI A3, H-RRKKcwwftfidc-OH] (H-RRKK[dC][dW][dW][dF][dT][dF][dI][dD][dC]-OH; disulfide 5-13) is lower in “% Inhibition” value: 95% for the first, 66% for the second.

In the case of `CC[C@@H](C)[C@H]1NC(=O)[C@@H](Cc2ccccc2)NC(=O)[C@@H]([C@H](C)O)NC(=O)[C@@H](Cc2ccccc2)NC(=O)[C@@H](Cc2c[nH]c3ccccc23)NC(=O)[C@@H](Cc2c[nH]c3ccccc23)NC(=O)[C@H](NC(=O)[C@H](CCCCN)NC(=O)[C@H](CCCCN)NC(=O)[C@H](CCCNC(=N)N)NC(=O)[C@@H](N)CCCNC(=N)N)CSSC[C@H](C(=O)O)NC(=O)[C@@H](CCC(=O)O)NC1=O` [PSP VI A4, H-RRKKcwwftfiec-OH] (H-RRKK[dC][dW][dW][dF][dT][dF][dI][dE][dC]-OH; disulfide 5-13), the “% Inhibition” value is reported as 65%.
